Source: US10016409B2, “Method for improving interstitial flow” (priority 2012, dated 2018)
Values joined by “and” are separate entries in the source; they are usually repeats but may differ in a detail not shown here. Identical values can stand only once.

Assays:
Tg-SwDI mice [1] = assay: Perivascular Aβ deposition by immunohistochemical staining; assay type: in vivo; details: vs ordinary feed group
Description: To verify interstitial flow improvement by cilostazol, inhibition of deposition of harmful proteins on the cerebrovascular lymph drainage pathway by cilostazol was examined by using a cerebral amyloid angiopathy model. Totally unlike a drainage system through a specific receptor or antigen-antibody reaction, drainage of harmful proteins through the interstitial flow is a general drainage system irrespective of the type and amount of proteins, and Aβ in these examples is merely an example of intracerebral harmful proteins for which the interstitial flow is improved so that deposition on the cerebrovascular lymph drainage pathway is inhibited.
After 15 months from the start of breeding, with respect to Tg-SwDI mice of a group administered with cilostazol-containing feed for 13.5 months and Tg-SwDI mice of the ordinary feed administered group, the brain was perfusion-fixed by using 4% paraformaldehide, and the extracted brain was dehydrated for one day. Then, a paraffin block of a fixed brain tissue was prepared, and a paraffin block was sliced to 6 microns with a microtome. […] An ImageJ (NIH) was used as image analysis software. Five regions of interest were randomly selected from the frontal lobe and the hippocampus region in a tissue section, and photographed in a field with a magnification of 200. The measured data was analyzed by using a t test.

Tg-SwDI mice [2] = assay: Drainage of injected fluorescent label Aβ1-40 through perivascular interstitial fluid pathway; assay type: in vivo; details: single images FIGS. 8 to 10, 30 minutes after injection into striate, cilostazol-containing feed group
Description: To verify interstitial flow improvement by cilostazol, harmful protein drainage facilitation by cilostazol was examined by using a cerebral amyloid angiopathy model. Totally unlike a drainage system through a specific receptor or antigen-antibody reaction, drainage of harmful proteins through the interstitial flow is a general drainage system irrespective of the type and amount of proteins, and Aβ in these examples is merely an example of intracerebral harmful proteins for which the interstitial flow is improved so that drainage is facilitated.
After 15 months from the start of breeding, with respect to Tg-SwDI mice (n=4) of a group administered with cilostazol-containing feed for 13.5 months and Tg-SwDI mice (n=3) of the ordinary feed administered group, Tg-SwDI mice were placed at the prone position under inhalation anesthesia using 1.5% isoflurane, midline incision of scalp was performed, and then, by using a 32 G micropipet, such that a fluorescent label Aβ1-40 was injected for 30 seconds in the manner of stereotaxy into the striate of Tg-SwDI mice (a front part of 0.98 mm and a side part of 1.5 mm in bregma) as indicated by the arrow in FIG. 7. The depth from the brain surface to the injection site of the striate was 3.0 mm, and the fluorescent label Aβ1-40 was purchased from AnaSpec (San Jose, Calif., USA). […]

dementia patients = assay: Retrospective clinical survey, MMSE change in dementia patients with first MMSE score less than or equal to 21; assay type: in vivo, human
Description: Thus, it is not worth referring to these reports. It is assumed that a considerable degree of irreversible neurodegeneration has progressed in dementia patients, and in view of the action mechanism of the interstitial flow-improving agent, a sufficient therapeutic effect of the interstitial flow-improving agent might not be present for dementia patients. Thus, to evaluate the influence of consecutive oral administration of cilostazol on the cognitive function, a survey of consecutive cases (3183 cases in total) for which record of cilostazol administration between 1996 and 2012 exists was conducted, and examination was conducted by using all the cases matching the following conditions. In this study, to eliminate the influence of anti-dementia drugs, patients administered with anti-dementia drugs such as donepezil were removed from the analysis.
(i) The mini mental state exam (MMSE), which is a typical test of cognitive function, was conducted twice or more with an interval of 6 months or more (in a case where the MMSE was performed three or more times, two examination results of the first examination and the last examination were selected);
(ii) The first MMSE score was less than or equal to 21;
(iii) A case in which cilostazol was administered in a period at least more than a half of an MMSE observation period was selected as a group (hereinafter referred to as a treated group) subjected to consecutive treatment; and
(iv) A case in which cilostazol was administered in two months or less in an MMSE observation period was selected as a group (hereinafter referred to as an untreated group) not subjected to consecutive treatment.
(i) The rate of change in MMSE score in each group (calculation method: [last MMSE score−first MMSE score]/MMSE observation period [years]). In comparison between the two groups, statistical analysis was conducted such that the rate difference was obtained by using a chi-square test and other items were obtained by using a t test.

## O=C1CCc2cc(OCCCCc3nnnn3C3CCCCC3)ccc2N1 [cilostazol, 6-[4-(1-cyclohexyl-1H-tetrazole-5-yl)butoxy]3,4-dihydrocarbostyril]
Tg-SwDI mice [1]; cilostazol-containing feed for 8 months from 4 months of age, FIG. 15
  deposition of Aβ on the perivascular site: reduced
Tg-SwDI mice [1]; cilostazol-containing feed for 13.5 months from 1.5 months of age, FIG. 16
  deposition of Aβ on the perivascular site: reduced
Tg-SwDI mice [1]; frontal lobe and hippocampus, FIGS. 13 and 14
  amount of Aβ deposited on a perivascular site: smaller
Tg-SwDI mice [2]
  distance of fluorescent label Aβ1-40 accumulation site of a leptomeninges vessel from the injection site: 2922 μm and 3422 μm and 3507 μm
Dementia patients; dementia treated group (19 cases), first MMSE less than or equal to 21, average±standard error, P value 0.21 vs untreated
  rate of change in MMSE score: 0.5±0.7 /year
Dementia patients; first MMSE less than or equal to 21, treated vs untreated
  therapeutic effects on dementia: no statistically significant therapeutic effects on dementia were observed
Dementia patients; untreated group of dementia survey
  side effects leading to no consecutive cilostazol treatment: side effects such as diarrhea and headaches
